Measured values reported in patent US12491182B2, “Polymorphs of triazole antifungal compound PC945” (Pulmocide Limited, priority 2019, dated 2025).
Marks after values point to notes of the source that are not given here.

Experiments:
Format in all cases: physicochemical
[1] = Equilibration of Forms 1 and 2, singularly and as mixtures, in MEK and THF alone and with 5% water; conditions: 5-10 °C, both equilibration temperatures
Excerpt: The influence of the initial polymorphic composition on the fate of samples was investigated by equilibration of the either the single polymorphs or an equal mixture of both in anhydrous MEK and THF as well as in the same solvents doped with 5% water.
The results obtained (Table 13) reveal that in anhydrous media the two polymorphs retain their structural integrity, if present singularly (Table 13, Entries 1, 2, 4 and 5). […] (Table 13, Entry 4) which may be attributable to the presence of traces of moisture in a highly hygroscopic solvent.
The results observed when 5% water was admixed to the two solvents indicate that the predominance of the two forms reversed under these conditions, taking kinetic factors into account. In aqueous MEK (5% water) the single polymorphs were again unchanged for the duration of the experiment (Table 13, Entries 7 and 8). In contrast, the binary polymorphic mixture converted into Form 1 in this medium (Table 13, Entry 9). In aqueous THF (5% water) the dominance of Form 1 as the most preferred polymorph was especially evident. In this environment the suspension of Form 1 remained unchanged (Table 13, Entry 10), consistent with the outcome observed for aq MEK under the same conditions.
However, in THF doped with 5% water, both the suspension comprising the binary mixture, as well as that composed of the Form 2 polymorph alone, were transformed into suspensions containing only Form 1 (Table 13, Entries 11 and 12).

[2] = Micronisation: particle size distribution and polymorphic integrity; conditions: for polymorphic integrity during micronisation (XRPD): XRPD trace after milling compared with before; for particle size distribution D10 / particle size distribution D50 / particle size distribution D90: after micronisation
Excerpt: Liquid suspension and aerosol formulations (whether pressurised or unpressurised) will typically contain the compound of the invention in particulate form, for example with a D50 of 0.5-10 μm, suitably around 1-5 μm, such as 1-2 μm. Suitably, the compound of the invention in particulate form has a D10 of 0.2 to 1 μm, such as 0.2 to 0.5 μm. Suitably, the compound of the invention in particulate form has a D90 of 2 to 6 μm such as 3 to 4 μm. The particulate form of the compound may, for example, be a micronised form. Micronisation may be performed using a jet mill such as those manufactured by Hosokawa Alpine. The resultant particle size distribution may be measured using laser diffraction (e.g. with a Malvern Mastersizer 2000S instrument). Particle size distributions may be represented using D10, D50 and D90 values. The Dso median value of particle size distributions is defined as the particle size in microns that divides the distribution in half. The measurement derived from laser diffraction is more accurately described as a volume distribution and consequently the D50 value obtained using this procedure is more meaningfully referred to as a Dv50 value (median for a volume distribution). As used herein Dv values refer to particle size distributions measured using laser diffraction. Similarly, D10 and D90 values, used in the context of laser diffraction, are taken to mean Dv10 and Dv90 values and refer to the particle size whereby 10% of the distribution lies below the D10 value, and 90% of the distribution lies below the D90 value, respectively.
A sample of crude input material (100 g, Form 3) was suspended in a mixture of 5% water in acetone (1.00 L), a seed of Form 1 (100 mg) was added and the mixture was stirred at RT overnight. The suspension was filtered and the filter cake was washed with a mixture of 5% water in acetone (20 mL) and the solids dried at 40° C. to provide polymorphic Form 1 as a white powder (85.5 g, 85.5% recovery, 98.7% purity by HPLC) as determined from its DSC trace (FIG. 9). Micronisation of the product so obtained provided a powder for which the particle size distribution, expressed in D values, was as follows: […].
Micronisation of the product so obtained provided a powder for which the particle size distribution, expressed in D values, was as follows: […]. It will be appreciated by those skilled in the art that these characteristics are suitable for a product intended for administration by inhalation. […] The Form 2 polymorph is therefore susceptible to and stable towards the micronisation process required to derive a material with the properties necessary for its intended purpose.

[3] = Fate of Form 2 slurried in THF and THF/water mixtures, XRPD
Experimental: To investigate the generality of this unforeseen transformation a similar experiment was carried out in THF and in THF/water mixtures. […] At 25° C. those mixtures comprising 10% and 20% water returned Form 1 after 4 and 24 hours respectively (Table 10, Entries 2 and 3).

[4] = Fate of Form 2 slurried in MEK/water mixtures, XRPD; conditions: MEK, 50 °C, 24 hour time point

SMILES: Cc1cc(N2CCN(c3ccc(C(=O)Nc4ccc(F)cc4)cc3)CC2)ccc1OC[C@@H]1CO[C@@](Cn2cncn2)(c2ccc(F)cc2F)C1 [Form 1, 4-(4-(4-(((3R,5R)-5-((1H-1,2,4-triazol-1-yl)methyl)-5-(2,4-difluorophenyl)tetrahydrofuran-3-yl)methoxy)-3-methylphenyl)piperazin-1-yl)-N-(4-fluorophenyl)benzamide]
- Form by XRPD Post Equilibration ([1]; MEK (anhydrous)): 1
- Form by XRPD Post Equilibration ([1]; MEK/5% Water): 1
- Form by XRPD Post Equilibration ([1]; THF (anhydrous), Form 1 input: some evidence of Form 2 at 10 °C): 1^b
- Form by XRPD Post Equilibration ([1]; THF/5% Water): 1
- polymorphic integrity during micronisation (XRPD) [2]: polymorphic integrity was retained
- particle size distribution D10 [2]: 0.75 µm
- particle size distribution D50 [2]: 1.59 µm
- particle size distribution D90 [2]: 3.23 µm

SMILES: Cc1cc(N2CCN(c3ccc(C(=O)Nc4ccc(F)cc4)cc3)CC2)ccc1OC[C@@H]1CO[C@@](Cn2cncn2)(c2ccc(F)cc2F)C1 [Form 2, 4-(4-(4-(((3R,5R)-5-((1H-1,2,4-triazol-1-yl)methyl)-5-(2,4-difluorophenyl)tetrahydrofuran-3-yl)methoxy)-3-methylphenyl)piperazin-1-yl)-N-(4-fluorophenyl)benzamide]
- Polymorphic Form by XRPD ([3]; THF, water 0 vol %, 25 °C, 1 hr): 2
- Polymorphic Form by XRPD ([3]; THF, water 0 vol %, 25 °C, 4 hr): 2
- Polymorphic Form by XRPD ([3]; THF, water 0 vol %, 50 °C, 1 hr): 2
- Polymorphic Form by XRPD ([3]; THF, water 0 vol %, 50 °C, 4 hr): 2
- Polymorphic Form by XRPD ([3]; THF/water, water 10 vol %, 25 °C, 1 hr): 2
- Polymorphic Form by XRPD ([3]; THF/water, water 10 vol %, 25 °C, 4 hr): 1
- Polymorphic Form by XRPD ([3]; THF/water, water 10 vol %, 25 °C, 24 hr): 1
- Polymorphic Form by XRPD ([3]; THF/water, water 10 vol %, 50 °C, 1 hr): 1
- Polymorphic Form by XRPD ([3]; THF/water, water 10 vol %, 50 °C, 4 hr): 1
- Polymorphic Form by XRPD ([3]; THF/water, water 10 vol %, 50 °C, 24 hr): 1
- Polymorphic Form by XRPD ([3]; THF/water, water 20 vol %, 25 °C, 1 hr): 2
- Polymorphic Form by XRPD ([3]; THF/water, water 20 vol %, 25 °C, 4 hr): 2
- Polymorphic Form by XRPD ([3]; THF/water, water 20 vol %, 25 °C, 24 hr): 1
- Polymorphic Form by XRPD ([3]; THF/water, water 20 vol %, 50 °C, 1 hr): 1
- Polymorphic Form by XRPD ([3]; THF/water, water 20 vol %, 50 °C, 4 hr): 1
- Polymorphic Form by XRPD ([3]; THF/water, water 20 vol %, 50 °C, 24 hr): 1
- Polymorphic Form by XRPD ([3]; THF/water, water 40 vol %, 25 °C, 1 hr): 2
- Polymorphic Form by XRPD ([3]; THF/water, water 40 vol %, 25 °C, 4 hr): 2
- Polymorphic Form by XRPD ([3]; THF/water, water 40 vol %, 25 °C, 24 hr): 2
- Polymorphic Form by XRPD ([3]; THF/water, water 40 vol %, 50 °C, 1 hr): 1
- Polymorphic Form by XRPD ([3]; THF/water, water 40 vol %, 50 °C, 4 hr): 1
- Polymorphic Form by XRPD ([3]; THF/water, water 40 vol %, 50 °C, 24 hr): 1
- polymorphic integrity during micronisation (XRPD) [2]: no significant change
- particle size distribution D10 [2]: 0.42 µm
- particle size distribution D50 [2]: 1.24 µm
- particle size distribution D90 [2]: 3.57 µm
- Polymorphic Form by XRPD ([4]; water 1 % vol): 2
- Polymorphic Form by XRPD ([4]; water 2 % vol): 2
- Polymorphic Form by XRPD ([4]; water 4 % vol): 1
- Polymorphic Form by XRPD ([4]; water 6 % vol): 1
- Polymorphic Form by XRPD ([4]; water 8 % vol): 1
